Reference: patent US5179122A, “Nutritional supplement containing Vitamin E” (priority 1991, dated 1993)
Where two headings read alike, the source gives them in different places.

How the values were obtained:
[1] = rats; aqueous lecithin dispersed, containing medium chain triglycerides; cited from earlier work
[2] = Melt temperature of VEA/Myvatex Texture Lite blends by differential scanning calorimetry; format: physicochemical; conditions: VEA/Myvatex Texture Lite (wt. %); DSC
Source text: This example illustrates the affect of Myvatex Texture Lite food emulsifier on the melt temperature of VEA. The solid blend was formulated as described in Example 2.

[3] = 3% aqueous solution of Tween-80; cited from earlier work
[4] = some species; even in water dispersible forms; cited from earlier work
[5] = Melt temperature of VEA/TPGS blends by differential scanning calorimetry; format: physicochemical
Method: In this example, miscibility of the blends was investigated by determining the melt temperature of various blend ratios. […] The mixture was heated and blended to a homogeneous blend and cooled to room temperature. The melting point of each blend was determined by differential scanning calorimetry.

[6] = zoo animals; remaining excreted unchanged; cited from earlier work
[7] = horses; 0, 200, 600, 1800 and 5400 mg daily; cited from earlier work
[8] = solubilized in medium-chain triglycerides; cited from earlier work
[9] = same patients; tocopherol in vegetable oil; cited from earlier work
[10] = human, in vivo, po; cited from earlier work

Compound: CC(=O)Oc1c(C)c(C)c2c(c1C)CCC(C)(CCC[C@H](C)CCC[C@H](C)CCCC(C)C)O2 (mixture of isomers) [VEA, d- or dl-alpha-tocopheryl acetate]
- absorption of tocopherol [1]: enhanced absorption
- Melt Temperature [2]: 2.9 °C
- absorption rate relative to vegetable oil solution of VEA [3]: twice the rate
- bioavailability [4]: not bioavailable
- Melt Temperature ([5]; VEA/TPGS (wt. %), DSC): 2.9 °C
- TPGS required to solidify VEA ([5]; at room temperature): 25%

Compound: CC(=O)Oc1c(C)c(C)c2c(c1C)CCC(C)(CCCC(C)CCCC(C)CCCC(C)C)O2 (racemic) [dl-alpha-tocopheryl acetate]
- administered tocopherol absorbed [6]: one-half
- serum tocopherol levels with increasing dosage [7]: increased almost linearly

Compound: Cc1c(C)c2c(c(C)c1O)CCC(C)(CCCC(C)CCCC(C)CCCC(C)C)O2 (stereo not drawn) [tocopherol, alpha-tocopherol]
- absorption of tocopherol [8]: enhanced absorption
- bioavailability [4]: not bioavailable
- increase of tocopherol in the blood [9]: no significant increase

Compound: Vitamin A
- absorption [10]: enhanced absorption

Compound: Vitamin E
- absorption [10]: enhanced absorption
